Assay results: US8759500B2, “Crystalline forms of a macrolide, and uses therefor” (Cempra Pharmaceuticals, Inc., priority 2010, dated 2014)
Converted amounts (≈) assume the structure as drawn. Where two headings read alike, the source gives them in different places.

How the values were obtained:
[1] = Balb/c, mouse, in vivo, po, 20 mg/kg
Experimental: (§1) The doses were prepared as 2.0 mg/mL or 10.0 mg/mL in a vehicle of 0.5% (w/v) carboxymethyl cellulose in water and a dose volume of 10 mL/kg b.w. Blood samples were collected at various time points during the next 6 h post dose.

in vivo [2] = conditions: female, Balb/c, mouse, po; for AUC(0-t): AUC 0-24; for half-life: t½
[3] = female, Balb/c, mouse, in vivo, po
Dynamic vapor sorption = format: physicochemical
Experimental: The new physical form, Form I of CEM-101 is a crystalline form which may be described by its X-ray powder diffraction pattern. Peaks at approximate positions of about °2θ=8.8, 10.5, 13.2 and 18.6 are representative of this crystalline form. A more detailed analysis of the peaks is described in Tables 1-2 below. […] Water determination by Karl Fisher titration in typical lots is 0.6 to 1.1%. […] Form I of CEM-101 melts at about 200° C. by DSC analysis.
The new physical form, Form II of CEM-101 is a crystalline form which may be described by its X-ray powder diffraction pattern. Peaks at approximate positions of about °2θ=5.6, 7.9, 9.3, 11.7, 12.9 and 16.7 are representative of this crystalline form. A more detailed analysis of the peaks is described in Tables 3-4 below. Based on a single crystal X-ray determination and dynamic vapor sorption analysis, Form II appears to be a non-hygroscopic anhydrous crystalline form that melts at about 225° C. as a single endothermic event by DSC analysis. It is appreciated herein that non-hygroscopic solids, such as Form II described herein, may be advantageous in the preparation of pharmaceutical compositions. Such advantages include improved handling and stability properties in manufacturing, improved lot to lot quality control.

physchem [4] = conditions: 26 °C, thermodynamic from solid
[5] = Stability of Form I and Form II under various storage conditions; format: physicochemical; conditions: during the entire study, all storage conditions
Source text: In each case, the test material was first placed in Primary Packaging Material (LLDPE bag within a HMHDPE/LDPE/LDPE blend bag, and then heat sealed). The Primary Packaging Material was placed in Secondary Packaging Material (HDPE drum). All other impurities were less than 1% at each time point.

physchem [6] = conditions: pH 6.03, saline or isotonic, thermodynamic from solid
in vivo [7] = conditions: Balb/c, mouse, po
Experimental: as §1

- AUCextrap ([1]; female): 24%
- AUCextrap ([1]; male): 24%
- AUC(0-t) (in vivo [2]; 5 mg/kg): 3160 ng·h/mL
- Cmax (in vivo [2]; 5 mg/kg): 1540 ng/mL
- Tmax (in vivo [2]; 5 mg/kg): 0.5 h
- half-life (in vivo [2]; 5 mg/kg): 1.32 h
- AUC(0-t) (in vivo [2]; 10 mg/kg): 17200 ng·h/mL
- Cmax (in vivo [2]; 10 mg/kg): 4090 ng/mL
- Tmax (in vivo [2]; 10 mg/kg): 2 h
- half-life (in vivo [2]; 10 mg/kg): 2.95 h
- AUC(0-t) (in vivo [2]; 20 mg/kg): 26700 ng·h/mL
- Cmax (in vivo [2]; 20 mg/kg): 5910 ng/mL
- Tmax (in vivo [2]; 20 mg/kg): 2 h
- half-life (in vivo [2]; 20 mg/kg): 1.91 h
- AUC 0-24 ([3]; 5 mg/kg): 3.30
- Cmax ([3]; 5 mg/kg): 1430 ng/mL
- Tmax ([3]; 5 mg/kg): 0.6 h
- t½ ([3]; 5 mg/kg): 1.32 h
- AUC 0-24 ([3]; 10 mg/kg): 17.7
- Cmax ([3]; 10 mg/kg): 4680 ng/mL
- Tmax ([3]; 10 mg/kg): 2.4 h
- t½ ([3]; 10 mg/kg): 3.6 h
- AUC 0-24 ([3]; 20 mg/kg): 26.2
- Cmax ([3]; 20 mg/kg): 6640 ng/mL
- Tmax ([3]; 20 mg/kg): 1.6 h
- t½ ([3]; 20 mg/kg): 2.1 h
- hygroscopicity (Dynamic vapor sorption): partially hygroscopic
- solubility at 6 h (physchem [4]; pH 1.2, simulated gastric fluid): 4810 µg/mL (≈ 5690 µM)
- solubility at 6 h (physchem [4]; pH 4, aqueous buffer): 4660 µg/mL (≈ 5510 µM)
- solubility at 6 h (physchem [4]; pH 7.4, aqueous buffer): 2220 µg/mL (≈ 2630 µM)
- solubility at 6 h (physchem [4]; pH 9.2, aqueous buffer): 1750 µg/mL (≈ 2070 µM)
- change in color of the test material [5]: no observed change in color
- solubility at 6 h (physchem [6]): 1410 µg/mL (≈ 1670 µM)
- AUC(0-inf) (in vivo [7]; female, 20 mg/kg): 70000 ng·h/mL
- AUC(0-t) (in vivo [7]; female, 20 mg/kg): 53000 ng·h/mL
- Cmax (in vivo [7]; female, 20 mg/kg): 13600 ng/mL
- Tmax (in vivo [7]; female, 20 mg/kg): 0.5 h
- concentration at 0 h (in vivo [7]; female, 20 mg/kg): 0 ng/mL
- concentration at 0.25 h (in vivo [7]; female, 20 mg/kg): 8200 ± 2400 ng/mL
- concentration at 0.5 h (in vivo [7]; female, 20 mg/kg): 13600 ± 2000 ng/mL
- concentration at 1 h (in vivo [7]; female, 20 mg/kg): 12000 ± 1700 ng/mL
- concentration at 2 h (in vivo [7]; female, 20 mg/kg): 11300 ± 1400 ng/mL
- concentration at 4 h (in vivo [7]; female, 20 mg/kg): 7700 ± 700 ng/mL
- concentration at 6 h (in vivo [7]; female, 20 mg/kg): 4200 ± 400 ng/mL
- AUC(0-t) (in vivo [7]; female, 100 mg/kg): 91000 ng·h/mL
- Cmax (in vivo [7]; female, 100 mg/kg): 19500 ng/mL
- Tmax (in vivo [7]; female, 100 mg/kg): 6 h
- concentration at 0 h (in vivo [7]; female, 100 mg/kg): 0 ng/mL
- concentration at 0.25 h (in vivo [7]; female, 100 mg/kg): 11900 ± 1700 ng/mL
- concentration at 0.5 h (in vivo [7]; female, 100 mg/kg): 11600 ± 1600 ng/mL
- concentration at 1 h (in vivo [7]; female, 100 mg/kg): 14700 ± 2300 ng/mL
- concentration at 2 h (in vivo [7]; female, 100 mg/kg): 14100 ± 2900 ng/mL
- concentration at 4 h (in vivo [7]; female, 100 mg/kg): 16000 ± 2300 ng/mL
- concentration at 6 h (in vivo [7]; female, 100 mg/kg): 19500 ± 2300 ng/mL
- AUC(0-inf) (in vivo [7]; male, 20 mg/kg): 46000 ng·h/mL
- AUC(0-t) (in vivo [7]; male, 20 mg/kg): 35000 ng·h/mL
- Cmax (in vivo [7]; male, 20 mg/kg): 9500 ng/mL
- Tmax (in vivo [7]; male, 20 mg/kg): 1 h
- concentration at 0 h (in vivo [7]; male, 20 mg/kg): 0 ng/mL
- concentration at 0.25 h (in vivo [7]; male, 20 mg/kg): 5300 ± 1800 ng/mL
- concentration at 0.5 h (in vivo [7]; male, 20 mg/kg): 7700 ± 1600 ng/mL
- concentration at 1 h (in vivo [7]; male, 20 mg/kg): 9500 ± 900 ng/mL
- concentration at 2 h (in vivo [7]; male, 20 mg/kg): 6400 ± 800 ng/mL
- concentration at 4 h (in vivo [7]; male, 20 mg/kg): 5900 ± 600 ng/mL
- concentration at 6 h (in vivo [7]; male, 20 mg/kg): 2600 ± 800 ng/mL
- AUC(0-t) (in vivo [7]; male, 100 mg/kg): 83500 ng·h/mL
- Cmax (in vivo [7]; male, 100 mg/kg): 17400 ng/mL
- Tmax (in vivo [7]; male, 100 mg/kg): 4 h
- concentration at 0 h (in vivo [7]; male, 100 mg/kg): 0 ng/mL
- concentration at 0.25 h (in vivo [7]; male, 100 mg/kg): 11300 ± 2500 ng/mL
- concentration at 0.5 h (in vivo [7]; male, 100 mg/kg): 10700 ± 3000 ng/mL
- concentration at 1 h (in vivo [7]; male, 100 mg/kg): 13100 ± 3200 ng/mL
- concentration at 2 h (in vivo [7]; male, 100 mg/kg): 13400 ± 3100 ng/mL
- concentration at 4 h (in vivo [7]; male, 100 mg/kg): 17400 ± 2900 ng/mL
- concentration at 6 h (in vivo [7]; male, 100 mg/kg): 12000 ± 2000 ng/mL
Compound: CC[C@H]1OC(=O)[C@@](C)(F)C(=O)[C@H](C)[C@@H](O[C@@H]2O[C@H](C)C[C@H](N(C)C)[C@H]2O)[C@](C)(OC)C[C@@H](C)C(=O)[C@H](C)[C@H]2N(CCCCn3cc(-c4cccc(N)c4)nn3)C(=O)O[C@]12C [Form I, solithromycin]
